The values below are quoted from earlier work in patent US6365196B1, “Controlled release solid dosage forms of lithium carbonate” (SmithKline Beecham Corporation, priority 1997, dated 2002).

As for `O=C(O)/C=C/C(=O)O` [fumaric acid], the solubility in water is 6 mg per ml.
